According to ChEMBL document CHEMBL1201862, “PubChem BioAssay data set” (2004):
Calls of active or inactive are those of the source.

Assays:
Coagulation factor XII = molecular target: T1, Coagulation factor XII (Homo sapiens, UniProt P00748); type: functional;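 further: activated factor XIIa alpha cleaving a fluorogenic AMC peptide substrate; inhibitor potency from loss of enzyme activity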
T1 sequence (P00748 whole entry): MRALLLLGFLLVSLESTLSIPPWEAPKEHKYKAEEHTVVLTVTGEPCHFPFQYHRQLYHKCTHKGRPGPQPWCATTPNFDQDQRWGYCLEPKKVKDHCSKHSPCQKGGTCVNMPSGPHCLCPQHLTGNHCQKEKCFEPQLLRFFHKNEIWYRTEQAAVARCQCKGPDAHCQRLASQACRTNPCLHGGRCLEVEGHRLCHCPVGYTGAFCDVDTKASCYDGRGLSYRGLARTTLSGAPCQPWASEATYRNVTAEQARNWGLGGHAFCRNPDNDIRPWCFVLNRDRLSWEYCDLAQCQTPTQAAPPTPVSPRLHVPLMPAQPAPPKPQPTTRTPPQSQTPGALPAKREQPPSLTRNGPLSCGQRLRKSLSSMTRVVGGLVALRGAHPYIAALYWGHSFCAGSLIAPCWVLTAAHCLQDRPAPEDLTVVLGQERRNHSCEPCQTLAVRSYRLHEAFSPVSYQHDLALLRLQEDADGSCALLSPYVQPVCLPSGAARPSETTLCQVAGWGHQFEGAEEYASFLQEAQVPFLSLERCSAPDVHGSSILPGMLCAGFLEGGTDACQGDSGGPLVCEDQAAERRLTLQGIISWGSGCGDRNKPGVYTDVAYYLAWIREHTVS

[1] = molecular target: T2, Microphthalmia-associated transcription factor (Homo sapiens, UniProt O75030); assay: TRPM1 promoter luciferase signal decrease, dose response, MITF inhibitor project, cell-based, SK-MEL-5, cherry-picked, set 3 (AID 493073); type: functional
T2 sequence (O75030 whole entry): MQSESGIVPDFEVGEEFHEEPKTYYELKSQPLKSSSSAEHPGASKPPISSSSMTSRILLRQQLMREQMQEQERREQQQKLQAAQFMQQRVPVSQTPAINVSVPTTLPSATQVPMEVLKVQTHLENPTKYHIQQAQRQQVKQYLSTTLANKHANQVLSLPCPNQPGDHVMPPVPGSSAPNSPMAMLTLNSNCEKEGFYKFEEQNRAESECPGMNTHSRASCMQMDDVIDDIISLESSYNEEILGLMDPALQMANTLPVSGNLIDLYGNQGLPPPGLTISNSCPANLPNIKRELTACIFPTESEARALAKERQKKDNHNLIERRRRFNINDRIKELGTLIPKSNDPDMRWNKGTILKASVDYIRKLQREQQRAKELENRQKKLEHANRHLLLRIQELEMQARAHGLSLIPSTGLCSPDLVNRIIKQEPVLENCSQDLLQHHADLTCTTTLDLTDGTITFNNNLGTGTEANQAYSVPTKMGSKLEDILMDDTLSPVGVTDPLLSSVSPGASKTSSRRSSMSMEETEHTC

[2] = LGR2 antagonists, dose response, cell-based, HEK293, CRE-luciferase reporter, cherry pick, set 2 (AID 743343); type: functional;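 further: transfected cells were stimulated with diluted bursicon conditioned medium after compound addition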
[3] = MC4R antagonists, dose response, counter-screen for LGR2 antagonist project, cell-based, plate reader, cherry pick (AID 743444); type: functional;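 further: transfected HEK 293 cells stimulated with alpha-MSH peptide; potency of inhibitors of the alpha-MSH evoked signal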
[4] = molecular target: T3, Endoribonuclease toxin MazF (Escherichia coli K-12, UniProt P0AE70); assay: MazF toxin RNase activators, dose response, biochemical, fluorescence, single-stranded RNA substrate, uHTS hits (AID 588481); type: functional
T3 sequence (P0AE70 whole entry): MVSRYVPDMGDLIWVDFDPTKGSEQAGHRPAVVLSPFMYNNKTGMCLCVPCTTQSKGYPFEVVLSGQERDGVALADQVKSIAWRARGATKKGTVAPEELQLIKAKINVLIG

[5] = molecular target: T3, Endoribonuclease toxin MazF; assay: fluorescent RNA oligo signal without MazF, dose response, counter-screen for MazEF activator project, biochemical, fluorescence, single-stranded RNase substrate (AID 588502); type: functional
[6] = inhibitors of firefly luciferase expression or activity, dose response, H4 neuroglioma cells, luminescence (AID 1990); type: functional, cell-based
[7] = Luminescence Cell-Based Dose Response HTS to Identify Inhibitors of 5'UTR Stem-Loop Driven Prion Protein mRNA Translation in H4 Neuroglioblastoma Cells. [Related pubchem assays: 1827 (Project Summary), 1813 (Primary HTS)]; type: functional
[8] = inhibitors of SNCA 5'UTR-driven reporter translation, confirmation, H4 neuroglioma cells, luminescence (AID 1988); type: functional, cell-based
[9] = inhibitors of Bluetongue virus cytopathic effect, confirmation, arbovirus, BSR cells (AID 1250); type: functional;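 further: protection from viral cytopathic effect measured as cell viability by ATP luminescence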
Caspase-3 = molecular target: T4, Caspase-3 (Homo sapiens, UniProt P42574); type: functional;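 further: Dose-response selectivity test against caspase-3 for candidate inhibitors of sentrin-specific proteases (SENPs)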
T4 sequence (P42574 whole entry): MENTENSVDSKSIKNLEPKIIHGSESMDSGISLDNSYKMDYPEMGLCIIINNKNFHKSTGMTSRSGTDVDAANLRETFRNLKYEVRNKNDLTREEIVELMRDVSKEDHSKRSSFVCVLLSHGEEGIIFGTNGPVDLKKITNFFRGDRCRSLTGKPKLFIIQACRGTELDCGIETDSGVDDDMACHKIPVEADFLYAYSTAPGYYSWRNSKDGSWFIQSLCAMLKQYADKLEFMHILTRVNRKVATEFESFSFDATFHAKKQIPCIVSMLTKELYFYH

[10] = molecular target: T5, Sentrin-specific protease 7 (Homo sapiens, UniProt Q9BQF6); type: functional;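 further: Luminescence-based dose-response confirmation of ultra-high-throughput screening hits, measuring inhibition of SENP7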
T5 sequence (Q9BQF6 whole entry): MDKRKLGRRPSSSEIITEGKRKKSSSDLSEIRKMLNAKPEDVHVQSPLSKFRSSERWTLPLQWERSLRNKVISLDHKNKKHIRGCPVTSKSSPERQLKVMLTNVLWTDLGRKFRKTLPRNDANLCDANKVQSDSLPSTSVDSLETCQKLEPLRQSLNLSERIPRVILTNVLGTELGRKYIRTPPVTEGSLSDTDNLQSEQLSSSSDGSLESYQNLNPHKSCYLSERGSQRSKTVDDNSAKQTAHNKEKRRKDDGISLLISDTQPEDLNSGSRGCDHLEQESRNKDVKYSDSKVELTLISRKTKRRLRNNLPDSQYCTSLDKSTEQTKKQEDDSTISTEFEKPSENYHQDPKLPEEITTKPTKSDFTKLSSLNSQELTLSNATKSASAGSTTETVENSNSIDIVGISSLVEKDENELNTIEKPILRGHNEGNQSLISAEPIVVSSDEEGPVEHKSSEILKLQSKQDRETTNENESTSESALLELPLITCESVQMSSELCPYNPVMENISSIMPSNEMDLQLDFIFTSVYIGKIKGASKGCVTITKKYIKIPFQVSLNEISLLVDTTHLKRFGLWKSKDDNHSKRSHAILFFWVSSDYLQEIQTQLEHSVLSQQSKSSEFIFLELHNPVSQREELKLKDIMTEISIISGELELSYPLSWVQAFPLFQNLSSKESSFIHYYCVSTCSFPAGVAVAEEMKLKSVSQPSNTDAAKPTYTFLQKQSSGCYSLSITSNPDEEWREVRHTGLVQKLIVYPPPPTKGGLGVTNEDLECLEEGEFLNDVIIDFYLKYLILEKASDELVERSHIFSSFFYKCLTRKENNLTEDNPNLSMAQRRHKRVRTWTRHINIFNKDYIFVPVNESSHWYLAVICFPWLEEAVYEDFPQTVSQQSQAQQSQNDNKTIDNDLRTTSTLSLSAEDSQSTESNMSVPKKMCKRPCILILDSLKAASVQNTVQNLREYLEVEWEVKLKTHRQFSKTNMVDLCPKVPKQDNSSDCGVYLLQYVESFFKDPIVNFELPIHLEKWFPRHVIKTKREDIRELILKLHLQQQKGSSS

[11] = molecular target: T6, Sentrin-specific protease 6 (Homo sapiens, UniProt Q9GZR1); type: functional;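 further: Luminescence-based dose-response confirmatory assay of SENP6 inhibition, following up an ultra-high-throughput screen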
T6 sequence (Q9GZR1 whole entry): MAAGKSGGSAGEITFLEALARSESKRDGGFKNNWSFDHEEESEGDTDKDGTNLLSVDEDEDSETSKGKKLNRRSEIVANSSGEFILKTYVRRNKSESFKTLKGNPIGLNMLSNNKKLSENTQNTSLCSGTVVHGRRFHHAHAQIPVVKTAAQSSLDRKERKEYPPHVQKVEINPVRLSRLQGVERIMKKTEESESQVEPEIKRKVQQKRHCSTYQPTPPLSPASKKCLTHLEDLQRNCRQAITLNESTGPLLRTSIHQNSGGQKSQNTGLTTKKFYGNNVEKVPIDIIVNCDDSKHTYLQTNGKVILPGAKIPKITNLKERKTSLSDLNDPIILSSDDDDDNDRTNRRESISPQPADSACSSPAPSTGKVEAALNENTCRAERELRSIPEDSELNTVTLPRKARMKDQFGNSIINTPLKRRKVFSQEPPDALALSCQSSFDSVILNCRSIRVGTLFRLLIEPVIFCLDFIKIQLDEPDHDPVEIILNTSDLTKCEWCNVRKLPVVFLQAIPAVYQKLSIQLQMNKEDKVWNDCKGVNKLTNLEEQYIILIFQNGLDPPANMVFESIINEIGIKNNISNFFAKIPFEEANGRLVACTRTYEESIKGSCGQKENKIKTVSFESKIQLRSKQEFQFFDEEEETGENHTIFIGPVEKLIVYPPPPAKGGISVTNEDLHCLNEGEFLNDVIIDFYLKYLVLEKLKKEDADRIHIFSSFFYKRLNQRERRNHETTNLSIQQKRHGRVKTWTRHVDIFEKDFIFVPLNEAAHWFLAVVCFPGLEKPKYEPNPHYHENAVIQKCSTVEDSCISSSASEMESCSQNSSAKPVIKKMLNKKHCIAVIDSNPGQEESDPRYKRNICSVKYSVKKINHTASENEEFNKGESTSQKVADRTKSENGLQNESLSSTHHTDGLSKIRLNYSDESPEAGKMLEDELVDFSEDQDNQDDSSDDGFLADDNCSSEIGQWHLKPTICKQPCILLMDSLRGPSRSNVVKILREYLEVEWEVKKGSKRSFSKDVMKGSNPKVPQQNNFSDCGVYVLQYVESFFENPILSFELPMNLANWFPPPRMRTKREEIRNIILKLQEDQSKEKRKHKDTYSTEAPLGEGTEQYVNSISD

[12] = molecular target: T7, Sentrin-specific protease 8 (Homo sapiens, UniProt Q96LD8); type: functional;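 further: luminescence read-out of SENP8 inhibition, dose-response confirmation following an ultra-high-throughput screen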
T7 sequence (Q96LD8 whole entry): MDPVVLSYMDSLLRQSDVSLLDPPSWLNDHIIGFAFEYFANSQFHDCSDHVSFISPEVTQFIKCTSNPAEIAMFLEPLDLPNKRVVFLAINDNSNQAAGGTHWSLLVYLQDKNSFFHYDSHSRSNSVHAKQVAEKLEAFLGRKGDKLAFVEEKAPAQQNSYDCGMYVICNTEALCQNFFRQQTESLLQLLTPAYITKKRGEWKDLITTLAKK

[13] = cytotoxicity in HEK-293T cells, dose response, cytotoxicity control for TCR NF-kB inhibitor project, luminescence, T-cell screen hits (AID 489026); type: functional, cell-based;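 further: cells exposed to compound about 14 hours before the viability readout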
Fatty acid synthase [14] = molecular target: T8, Fatty acid synthase (Homo sapiens, UniProt P49327); assay: FAS thioesterase domain inhibitors, dose response, biochemical, endpoint fluorescence intensity, uHTS hits (AID 624327); type: functional;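 further: fluorescence from hydrolysis of an O-methyl fluorescein acyl ester substrate by the enzyme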
Fatty acid synthase [15] = molecular target: T8, Fatty acid synthase; assay: FAS thioesterase domain inhibitors, dose response, biochemical, kinetic fluorescence intensity (AID 624326); type: functional;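 further: rate of fluorescence rise from hydrolysis of a fluorogenic O-methyl fluorescein ester substrate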
cells [16] = type: functional, cell-based
cells [17] = type: functional, cell-based; remark: listed apart in the source

T8 sequence (P49327 whole entry, the tested form may be a part): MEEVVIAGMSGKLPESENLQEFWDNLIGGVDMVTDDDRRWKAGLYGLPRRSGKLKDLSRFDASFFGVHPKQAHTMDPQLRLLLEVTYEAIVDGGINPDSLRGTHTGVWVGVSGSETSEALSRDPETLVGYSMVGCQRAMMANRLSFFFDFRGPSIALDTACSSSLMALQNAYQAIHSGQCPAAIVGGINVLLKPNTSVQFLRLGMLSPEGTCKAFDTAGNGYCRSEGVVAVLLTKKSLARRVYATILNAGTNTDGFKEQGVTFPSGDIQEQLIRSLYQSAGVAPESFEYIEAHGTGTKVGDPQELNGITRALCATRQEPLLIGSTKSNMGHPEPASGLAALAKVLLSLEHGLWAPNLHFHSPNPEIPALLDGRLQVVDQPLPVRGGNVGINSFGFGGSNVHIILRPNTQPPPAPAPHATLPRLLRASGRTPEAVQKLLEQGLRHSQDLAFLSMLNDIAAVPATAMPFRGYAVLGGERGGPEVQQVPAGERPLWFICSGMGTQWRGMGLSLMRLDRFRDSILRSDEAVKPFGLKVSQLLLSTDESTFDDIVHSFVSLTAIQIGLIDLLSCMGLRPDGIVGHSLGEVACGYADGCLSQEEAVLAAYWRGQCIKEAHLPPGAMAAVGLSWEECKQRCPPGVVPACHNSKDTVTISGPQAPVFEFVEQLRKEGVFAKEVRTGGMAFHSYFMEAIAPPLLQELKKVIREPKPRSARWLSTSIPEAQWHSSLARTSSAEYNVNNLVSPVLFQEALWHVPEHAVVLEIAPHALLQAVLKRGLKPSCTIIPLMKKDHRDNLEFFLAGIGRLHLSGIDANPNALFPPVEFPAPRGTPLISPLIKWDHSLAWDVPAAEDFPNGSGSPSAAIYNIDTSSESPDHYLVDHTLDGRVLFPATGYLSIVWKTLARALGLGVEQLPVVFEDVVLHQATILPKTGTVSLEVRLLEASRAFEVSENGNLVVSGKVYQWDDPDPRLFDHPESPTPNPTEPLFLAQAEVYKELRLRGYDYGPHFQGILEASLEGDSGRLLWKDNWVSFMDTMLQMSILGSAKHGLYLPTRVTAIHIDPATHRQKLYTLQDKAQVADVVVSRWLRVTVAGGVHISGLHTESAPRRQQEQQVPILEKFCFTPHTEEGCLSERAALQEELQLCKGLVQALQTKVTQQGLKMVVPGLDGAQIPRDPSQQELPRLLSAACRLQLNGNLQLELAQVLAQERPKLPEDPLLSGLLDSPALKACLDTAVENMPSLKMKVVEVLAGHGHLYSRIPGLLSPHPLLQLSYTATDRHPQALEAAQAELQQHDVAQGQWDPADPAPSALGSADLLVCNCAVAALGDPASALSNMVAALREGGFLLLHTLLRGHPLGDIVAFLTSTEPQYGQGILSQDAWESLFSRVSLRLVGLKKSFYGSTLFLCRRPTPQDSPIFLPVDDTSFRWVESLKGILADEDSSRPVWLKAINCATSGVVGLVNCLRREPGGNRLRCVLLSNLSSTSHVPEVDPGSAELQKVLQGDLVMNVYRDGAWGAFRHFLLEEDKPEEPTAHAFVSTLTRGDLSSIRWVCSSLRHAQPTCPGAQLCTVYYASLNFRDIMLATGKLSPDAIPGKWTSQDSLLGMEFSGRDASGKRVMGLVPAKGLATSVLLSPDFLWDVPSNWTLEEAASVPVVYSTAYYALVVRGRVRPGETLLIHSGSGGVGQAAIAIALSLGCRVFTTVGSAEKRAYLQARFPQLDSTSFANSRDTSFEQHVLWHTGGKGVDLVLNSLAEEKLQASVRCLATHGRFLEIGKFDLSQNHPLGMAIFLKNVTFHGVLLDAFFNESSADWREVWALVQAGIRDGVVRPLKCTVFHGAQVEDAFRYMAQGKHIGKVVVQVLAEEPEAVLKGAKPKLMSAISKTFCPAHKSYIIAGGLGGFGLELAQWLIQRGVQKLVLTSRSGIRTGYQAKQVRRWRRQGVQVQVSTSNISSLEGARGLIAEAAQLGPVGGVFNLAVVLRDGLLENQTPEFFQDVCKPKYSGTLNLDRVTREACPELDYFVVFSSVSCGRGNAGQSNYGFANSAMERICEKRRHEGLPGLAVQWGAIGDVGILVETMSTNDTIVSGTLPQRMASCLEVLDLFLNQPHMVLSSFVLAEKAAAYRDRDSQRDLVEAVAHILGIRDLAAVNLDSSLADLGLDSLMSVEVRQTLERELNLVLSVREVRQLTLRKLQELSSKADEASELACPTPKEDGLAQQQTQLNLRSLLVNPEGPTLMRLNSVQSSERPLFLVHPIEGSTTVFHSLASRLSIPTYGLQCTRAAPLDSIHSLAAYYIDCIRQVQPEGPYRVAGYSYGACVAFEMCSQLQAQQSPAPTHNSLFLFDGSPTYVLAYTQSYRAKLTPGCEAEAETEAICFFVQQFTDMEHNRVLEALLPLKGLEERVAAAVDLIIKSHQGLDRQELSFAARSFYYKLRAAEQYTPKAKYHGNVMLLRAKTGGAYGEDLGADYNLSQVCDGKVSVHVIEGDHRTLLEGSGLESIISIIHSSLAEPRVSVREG

COc1ccc(C(=O)CSc2nc3ccc[nH]c-3n2)cc1OC
IC50 (Coagulation factor XII): > 50 µM (inactive)

O=C(NC1CCCc2ccccc21)C1CCN(S(=O)(=O)c2ccccc2F)CC1 (stereo unspecified)
IC50 (Coagulation factor XII): > 50 µM (inactive)

CCOc1ccc(C(=O)Nc2cccc(C(=O)O)c2C)cc1Cl
AC50 [1]: 8.56 µM (active) | AC50 [2]: 8.96 µM (active) | AC50 [3]: 10.1 µM (active)

COc1cc2[nH]c(=O)n(Cc3ccc(C(=O)NC4CCCC4)cc3)c(=O)c2cc1OC
EC50 [4]: > 99 µM (inactive) | EC50 [5]: > 99 µM (inactive)

Cc1cc(C(=O)CN2C(=O)c3ccccc3S2(=O)=O)c(C)n1-c1ccccc1
EC50 [6]: 7.71 µM (active) | EC50 [7]: 9.5 µM (active) | EC50 [8]: 5.88 µM (active) | AC50 [1]: 3.45 µM (active)

Cc1cc(NC(=O)COC(=O)C2CCN(S(=O)(=O)c3c(Cl)cccc3Cl)CC2)no1
IC50 (Coagulation factor XII): > 50 µM (inactive)

O=C(Nc1nc2c(s1)CCCC2)c1ccc(Br)s1
IC50 [9]: 25.7 µM (active) | IC50 (Caspase-3): 24.9 µM (active) | IC50 [10]: 4.82 µM (active) | IC50 [11]: 5.95 µM (active) | IC50 [12]: 25.4 µM (active)

CCOc1ccc(-c2[nH]ncc2-c2ccc(OC)c(OC)c2)c(O)c1
IC50 [13]: 75.8 µM (inactive)

CCOc1cc(NC(=O)CCl)c(OCC)cc1NC(=O)CCl
AC50 [1]: 5.51 µM (active)

COc1ccc(NC(=O)Cn2nnc(-c3ccccc3NS(=O)(=O)c3ccc(OC)cc3)n2)cc1
IC50 [13]: > 80 µM (inactive)

O=Nc1ccc(NOC(=O)c2ccccc2)cc1
IC50 (Caspase-3): 48.4 µM (active) | IC50 [10]: 8.98 µM (active) | IC50 [11]: 21.7 µM (active) | IC50 [12]: > 100 µM (inactive)

O=C(O)c1ccc(Nc2nc3c(s2)CCCC3)cc1
AC50 [1]: 6.49 µM (active) | AC50 [2]: 4.2 µM (active) | AC50 [3]: 4.75 µM (active)

Cc1nonc1OC(C)CNCCNc1ccc([N+](=O)[O-])cc1 (stereo unspecified)
IC50 (Coagulation factor XII): > 50 µM (inactive)

O=C(C1CC(c2ccc(Cl)c(Cl)c2)=NO1)N1CCC2(CC1)OCCO2 (stereo unspecified)
IC50 (Coagulation factor XII): > 50 µM (inactive) | IC50 (Fatty acid synthase [14]): 7.22 µM (active) | IC50 (Fatty acid synthase [15]): 5.55 µM (active)

CCc1ccc(/C=N/NC(=O)c2cc(C3CC3)nc3ccccc23)s1
IC50 [13]: > 80 µM (inactive)

COc1cccc(/N=C/c2c(O)oc3ccccc3c2=O)c1
IC50 (Caspase-3): > 100 µM (inactive) | IC50 [10]: 14.2 µM (active) | IC50 [11]: > 100 µM (inactive) | IC50 [12]: > 100 µM (inactive)

O=[N+]([O-])c1ccc(N/N=C/c2ccccc2O)cc1
EC50 (cells [16]): > 350 µM (not active) | EC50 (cells [17]): 10.4 µM (active) | IC50 (Caspase-3): 31.1 µM (active) | IC50 [10]: 4.9 µM (active) | IC50 [11]: 22.1 µM (active) | IC50 [12]: 55.1 µM (active)

COc1ccc(/C=C2\CCc3ccccc3C2=O)cc1OC
IC50 (Caspase-3): 27.3 µM (active) | IC50 [10]: 7.94 µM (active) | IC50 [11]: 15.8 µM (active) | IC50 [12]: 22.1 µM (active)
